Patent US20130065818A1, “Arylamide Compounds And Compositions And Uses Thereof” (POLYMEDIX, priority 2006, published 2013)
In brackets after ≈: the same amount, converted by molar mass. Several values for one entry are separate records, joined by “and”; a condition that tells them apart may be missing. Identical values can stand only once. Entries after “also recorded” stand apart in the source; their conditions may differ.

What was measured:
E. faecalis ATCC 29212 = experiment: MIC, laboratory strains (Example 8); format: cell-based
[1] = test system: fluoroquinolone-resistant, methicillin-resistant Staphylococcus aureus (K950); experiment: NZW rabbit keratitis model, corneal colony counts; format: in vivo
Summary of the method: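 NZW rabbit corneas, with or without intact epithelia, infected with fluoroquinolone-resistant MRSA; right eyes left untreated. Topical treatments included 1%, 0.5% or 0.25% Oligomer 2 (0.25% ± 0.005% benzalkonium chloride), 0.25% Oligomer 4 ± 200 μM Farnesol, 200 μM Farnesol alone, and 5% vancomycin; read-out corneal colony counts.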

P. aeruginosa ATCC 10145 = experiment: MIC, laboratory strains (Example 8); format: cell-based
[2] = Draize ocular toxicity scoring, NZW rabbit ocular toxicity model; format: in vivo; set-up: key to MMTS / Score (Draize total): Draize total score of cornea, iris and conjunctivae; maximum 110; III. B. Chemosis / I. A. Cornea opacity / I. B. Area of cornea involved / II. A. Iris / III. A. Conjunctivae redness / III. C. Discharge: scale not given here
Experimental: The ocular toxicity of several concentrations of Oligomer 2, using the Draize ocular toxicity scoring system, in the NZW rabbit ocular toxicity model was carried out.
(§1) Rabbits were treated in both eyes with (37 μl) topical drops every 30 minutes for 3 hours (7 total doses). One rabbit was treated with Tris-Buffered Saline and served as a negative control. Rabbits were evaluated in a masked fashion for ocular toxicity by an ophthalmologist with specialty training in corneal and external disease. Ocular toxicity was evaluated using the Draize scoring system after treatment on Day 0 and on Day 3 post treatment for any delayed toxicity. (Draize et al., J. Pharmacol. Exp. Ther., 1944, 82, 377-390).
A brief summary of the Draize scoring system for ocular lesions is provided below
Total Maximum Score: 110 represents the sum of all scores obtained for the cornea, iris and conjunctivae.
The ocular toxicity of several formulations of Oligomer 4 with and without farnesol, using the Draize ocular toxicity scoring system, in the NZW rabbit ocular toxicity model was carried out.
as §1, with “external disease 30 minutes after the final dose.” for “external disease.”, “system (see above)” for “system”, “Day 2” for “Day 3”, “toxicity.” for “toxicity. (Draize et al., J. Pharmacol. Exp. Ther., 1944, 82, 377-390).”

[3] = 0.25% Oligomer 4 in TBS, Day 0, per eye
[4] = 0.25% Oligomer 4 in TBS, Day 2, per eye
[5] = 0.25% in Tris Buffered Saline (TBS), Day 0
[6] = 0.25% in Tris Buffered Saline (TBS), Day 2
[7] = 0.5% Oligomer 4 in TBS, Day 0, per eye
[8] = 0.5% Oligomer 4 in TBS, Day 2, per eye
[9] = 0.5% in Tris Buffered Saline (TBS), Day 0
[10] = 0.5% in Tris Buffered Saline (TBS), Day 2

## N=C(N)NCCCCC(=O)Nc1cc(C(F)(F)F)cc(NC(=O)c2cc(C(=O)Nc3cc(C(F)(F)F)cc(NC(=O)CCCCNC(=N)N)c3O[C@@H]3CCNC3)ncn2)c1O[C@@H]1CCNC1 [Oligomer 4]
E. faecalis ATCC 29212
  MIC: 0.78 µg/mL (≈ 0.833 µM)
[1]; Ker-4
  Effect of addition of Farnesol on penetration and antibacterial efficacy of Oligomer 4: did nothing to promote penetration; also recorded: a trend toward antagonism
[1]; Ker-4, corneal epithelium removed
  Reduction of colony counts compared with the Onset of Therapy Control: effective
[1]; in vivo
  Effect of addition of Farnesol on penetration of 0.25% Oligomer 4 through the intact corneal epithelium: did not appear aid in the penetration
P. aeruginosa ATCC 10145
  MIC: 12.5 µg/mL (≈ 13.3 µM)
[2]; 0.25% Oligomer 4 in TBS, Day 0
  Classification of eye irritation: Practically Non-Irritating
  MMTS: 1.5
  MMTS classification symbol: PN (0.6-2.5 Practically Non-Irritating)
[2]; [3]
  I. A. Cornea opacity: 0
  I. B. Area of cornea involved: 0
  I. Tot (cornea, A × B × 5): 0
  II. A. Iris: 0
  II. Tot (iris, A × 5): 0
  III. A. Conjunctivae redness: 0
  III. B. Chemosis: 0
[2]; 0.25% Oligomer 4 in TBS, Day 2
  Classification of eye irritation: Non-Irritating
  MMTS: 0.5
  MMTS classification symbol: N (0.0-0.5 Non-Irritating)
[2]; [4]
  I. A. Cornea opacity: 0
  I. B. Area of cornea involved: 0
  I. Tot (cornea, A × B × 5): 0
  II. A. Iris: 0
  II. Tot (iris, A × 5): 0
  III. A. Conjunctivae redness: 0
  III. B. Chemosis: 0
[2]; [5]
  MMTS: 1.5
  MMTS classification: PN (0.6-2.5 Practically Non-Irritating)
[2]; [6]
  MMTS: 0.5
  MMTS classification: N (0.0-0.5 Non-Irritating)
[2]; 0.5% Oligomer 4 in TBS, Day 0
  Classification of eye irritation: Mildly Irritating
  MMTS: 6.5
  MMTS classification symbol: M1 (2.6-15.0 Minimally Irritating)
[2]; [7]
  I. A. Cornea opacity: 0
  I. B. Area of cornea involved: 0
  I. Tot (cornea, A × B × 5): 0
  II. A. Iris: 0
  II. Tot (iris, A × 5): 0
  III. C. Discharge: 2 and 1
[2]; 0.5% Oligomer 4 in TBS, Day 2
  MMTS: 1.0
  MMTS classification symbol: N (0.0-0.5 Non-Irritating)
[2]; [8]
  I. A. Cornea opacity: 0
  I. B. Area of cornea involved: 0
  I. Tot (cornea, A × B × 5): 0
  II. A. Iris: 0
  II. Tot (iris, A × 5): 0
  III. A. Conjunctivae redness: 0
  III. B. Chemosis: 0
[2]; [9]
  MMTS: 6.5
  MMTS classification: M1 (2.6-15.0 Minimally Irritating)
[2]; [10]
  MMTS: 1.0
  MMTS classification: N (0.0-0.5 Non-Irritating)
[2]; Example 7, 7 topical instillations, every 30 minutes for 3 hours
  Dose dependence of ocular toxicity: dose dependent ocular toxicity
[2]; rabbit, in vivo
  Effect of addition of 100 μM Farnesol in 1% Propylene Glycol on ocular toxicity: increased the toxicity
